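Assay format: 96-well plates, 48-hour exposure. Here, GI50 denotes the concentration required for 50% inhibition of growth. Definition used: TGI = concentration required for complete inhibition of growth.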
Assays:
Assay in all cases: inhibition of tumour cell growth, NCI panel, 48 h
[1] = tested on: SNB-19 CNS
[2] = tested on: RXF 393 renal
[3] = tested on: RPMI-8226 leukemia
[4] = tested on: A549 NSCLC
[5] = tested on: CCRF-CEM leukemia
[6] = tested on: NCI-H522 lung
[7] = tested on: SK-OV-3 ovarian
[8] = tested on: OVCAR-5 ovarian
[9] = tested on: A498 renal
[10] = tested on: HS 578T breast

SMILES | GI50 [1] | TGI [1] | GI50 [2] | TGI [2] | GI50 [3] | TGI [3] | GI50 [4] | TGI [4] | GI50 [5] | TGI [5] | GI50 [6] | TGI [6] | GI50 [7] | TGI [7] | GI50 [8] | TGI [8] | GI50 [9] | TGI [9] | GI50 [10] | TGI [10]
Cc1ccc(-c2cc(O)c(-c3ccc(C)cc3C)cc2O)c(C)c1 | 10.9 µM | 30.9 µM | 5.6 µM | 19.7 µM | 4.93 µM | 55 µM | 3.8 µM | 21.6 µM | 3.65 µM | > 100 µM | 4.67 µM | 16.3 µM | 11 µM | 27.3 µM | 18 µM | 33.5 µM | 5.32 µM | 18 µM | 12.7 µM | 61.9 µM
CC[C@H](C)C(=O)O[C@H]1C[C@H](O)C=C2C=C[C@H](C)[C@H](CC[C@@H](O)C[C@@H](O)CC(=O)O)[C@H]21 | > 100 µM | > 100 µM | > 100 µM | > 100 µM | > 100 µM | > 100 µM | > 100 µM | > 100 µM | > 100 µM | > 100 µM | 63 µM | > 100 µM | > 100 µM | > 100 µM | > 100 µM | > 100 µM | 11.6 µM | > 100 µM | > 100 µM | > 100 µM
Nc1c(C(=O)Nc2cccc(Cl)c2Cl)sc2nc3c(cc12)C(=O)CCC3 | 4.64 µM | > 100 µM | > 100 µM | > 100 µM | > 100 µM | > 100 µM | 0.866 µM | > 100 µM | > 100 µM | > 100 µM | > 100 µM | > 100 µM | 3.8 µM | > 100 µM | > 100 µM | > 100 µM | 0.399 µM | 9.33 µM | > 100 µM | > 100 µM
CC(=O)c1cc(O)c2ccccc2c1O | 46 µM | > 100 µM | 19.5 µM | 33.8 µM | 22.7 µM | 60.5 µM | 37.1 µM | > 100 µM | 19.2 µM | > 100 µM | 14.5 µM | 35.4 µM | > 100 µM | > 100 µM | 23.7 µM | 43 µM | 89.5 µM | > 100 µM | 39.7 µM | > 100 µM
Cc1ccc(Sc2cc3c(oc2=O)-c2ccccc2OC3O)cc1 (configuration not stated) | 25 µM | 62.1 µM | 26.8 µM | 62.2 µM | 23.2 µM | 79.7 µM | 28.5 µM | 74.8 µM | 6.73 µM | 78.5 µM | 18.1 µM | 38.8 µM |  |  | 23.9 µM | 49 µM | 26.1 µM | 51.5 µM | 26.1 µM | 61.7 µM
Cc1coc2c1C(OC(=O)C(C)C)C1(C)C(C)CCC(O)C1C2=O (configuration not stated) |  |  |  | > 100 µM |  | > 100 µM |  | > 100 µM |  | > 100 µM |  | > 100 µM |  | > 100 µM |  | > 100 µM |  | > 100 µM |  | > 100 µM
C[C@@H]1COCCN1c1cc(C2(O)C[C@H]3CC[C@@H](C2)O3)c2cnn(-c3ccn[nH]3)c2n1 (some centres not stated) | 0.166 µM | 1.74 µM | < 0.0161 µM | 0.0581 µM | 0.162 µM | 3.72 µM | 0.0651 µM | 1.13 µM | 0.0382 µM | > 100 µM | 0.141 µM | 1.01 µM | 0.0992 µM | 4.03 µM | 0.0977 µM |  | 0.0221 µM | 0.13 µM | 0.0479 µM | 0.556 µM
CCN(Cc1c(Cl)cccc1Cl)c1ccc(CO)c(Cl)c1 | 13.2 µM | 26.2 µM | 7.16 µM | 24.7 µM | 1.12 µM | 17.6 µM | 3.35 µM | 20.6 µM | 15 µM | 36.6 µM | 11.1 µM | 24.9 µM | 9.84 µM | 22.3 µM | < 0.0284 µM | 0.24 µM | < 0.02 µM | 0.0465 µM | 15.8 µM | 37.9 µM
Cn1cc(C2=C(N3CCOCC3)C(=O)NC2=O)c2ccccc21 | > 25 µM | > 25 µM | > 25 µM | > 25 µM | > 25 µM | > 25 µM | > 25 µM | > 25 µM | > 25 µM | > 25 µM | > 25 µM | > 25 µM | > 25 µM | > 25 µM | > 25 µM | > 25 µM | > 25 µM | > 25 µM | > 25 µM | > 25 µM
CC(O)c1cc(C(=O)N[C@@H](C)Cn2ccc(-c3ccc(C#N)c(Cl)c3)n2)n[nH]1 (some centres not stated) | > 100 µM | > 100 µM | > 100 µM | > 100 µM | 15.3 µM | 80.6 µM | 85.4 µM | > 100 µM | 16.8 µM | 39.9 µM | 39.4 µM | > 100 µM | > 100 µM | > 100 µM | > 100 µM | > 100 µM | 3.51 µM | 55.9 µM | 62.7 µM | > 100 µM
O=c1oc2c(C(F)(F)F)cccc2cc1-c1csc(Nc2ccc(OCCF)cc2)n1 | 0.0873 µM | > 56.4 µM | 0.0343 µM | 18.2 µM | 0.0406 µM | 42.7 µM | 0.0391 µM | 18.8 µM | 0.0353 µM | > 69.2 µM | 0.0216 µM | 0.0766 µM | 0.041 µM | 23.2 µM | 0.231 µM | > 100 µM | 0.0353 µM | 20.9 µM | 0.051 µM | > 69.4 µM
O=C(O)C(Oc1nc(=S)[nH]c(=S)[nH]1)(c1ccc(Cl)cc1)c1ccc(Cl)cc1 |  | > 100 µM |  | > 100 µM |  | > 100 µM |  | > 100 µM |  |  |  | > 100 µM |  | > 100 µM |  | > 100 µM |  | > 100 µM |  | > 100 µM
C=CC1=C(C)C2=NC1=CC1=NC(=C(CC)/C1=C\O)C=C1N=C3C(=C1C)C(=O)[C@H](C(=O)OC)C3=C1NC(=C2)[C@@H](C)[C@@H]1CCC(=O)O |  | > 100 µM |  | 13.3 µM |  |  |  | > 100 µM |  | > 100 µM |  | > 100 µM |  | > 100 µM |  | > 100 µM |  | > 100 µM |  | > 100 µM
CCN(CC)c1ccc(/C=C/C=C2\NC(=O)NC2=O)cc1 | 16.1 µM | > 100 µM | 1.03 µM | 5.93 µM | 2.68 µM | 32.4 µM | 3.69 µM | 32.7 µM |  |  | 0.92 µM | 4.11 µM | 7.6 µM | > 100 µM | 11.1 µM | 98.4 µM | 1.26 µM | 6.55 µM | 3.91 µM | 42.6 µM
